# Source: publication PMC12959137 (Antimicrobial Agents and Chemotherapy, 2026)
# Target: KPC-2 (Klebsiella pneumoniae, UniProt Q9F663)
# Format: biochemical
# Conditions: read-out: KM for nitrocefin hydrolysis (used in Morrison fit)
# Protocol: Initial velocities (v₀) were determined by fitting the reaction progress curves by linear regression. These velocities were then plotted against buffer concentrations and analyzed using the Morrison equation to determine the inhibition constant (Ki) ([33]). […] All data analysis and curve fitting were performed using GraphPad Prism (version 10.3.1).
# Sequence of KPC-2 (Q9F663 25-293 limits assumed): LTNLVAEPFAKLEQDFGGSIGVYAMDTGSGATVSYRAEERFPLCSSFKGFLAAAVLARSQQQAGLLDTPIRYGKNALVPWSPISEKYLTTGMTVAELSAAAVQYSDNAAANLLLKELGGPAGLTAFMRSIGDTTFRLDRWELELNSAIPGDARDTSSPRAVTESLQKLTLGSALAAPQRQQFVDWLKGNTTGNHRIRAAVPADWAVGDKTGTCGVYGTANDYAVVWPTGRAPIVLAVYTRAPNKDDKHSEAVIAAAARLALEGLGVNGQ
smiles,measurement,value
O=C(Cc1cccs1)N[C@@H]1C(=O)N2C(C(=O)O)=C(/C=C/c3ccc([N+](=O)[O-])cc3[N+](=O)[O-])CS[C@H]12 [nitrocefin],Km,45 µM
